How the values were obtained:
SCPMA = experiment: In-water applied (paddy) greenhouse weed control, SCPMA; assay type: in vivo
Method: Weed seeds or nutlets of the desired test plant species were planted in puddled soil (mud) prepared by mixing a shredded, non-sterilized mineral soil (50.5 percent silt, 25.5 percent clay, and 24 percent sand, with a pH of about 7.6 and an organic matter content of about 2.9 percent) and water at a 1:1 volumetric ratio. The prepared mud was dispensed in 365 mL aliquots into 16-ounce (oz.) non-perforated plastic pots with a surface area of 86.59 square centimeters (cm^2) leaving a headspace of 3 centimeters (cm) in each pot. Mud was allowed to dry overnight prior to planting or transplanting. Rice seeds were planted in Sun Gro MetroMix® 306 planting mixture, which typically has a pH of 6.0 to 6.8 and an organic matter content of about 30 percent, in plastic plug trays. Seedlings at the second or third leaf stage of growth were transplanted into 840 mL of mud contained in 32-oz. non-perforated plastic pots with a surface area of 86.59 cm^2 4 days prior to herbicide application. The paddy was created by filling the headspace of the pots with 2.5 to 3 cm of water. When required to ensure good germination and healthy plants, a fungicide treatment and/or other chemical or physical treatment was applied. The plants were grown for 4-22 days in a greenhouse with an approximate 14 h photoperiod which was maintained at about 29′C during the day and 26° C. during the night. Nutrients were added as Osmocote® (19:6:12, N:P:K+minor nutrients) at 2 g per 16-oz. pot and 4 g per 960-mL 32-oz. pot. Water was added on a regular basis to maintain the paddy flood, and supplemental lighting was provided with overhead metal halide 1000-Watt lamps as necessary. The plants were employed for testing when they reached the second or third true leaf stage.
Treatments consisted of the acid or esters of 4-amino-3-chloro-5-fluoro-6-(4-chloro-2-fluoro-3-methoxy-phenyl)pyridine-2-carboxylic acid (compound A) each formulated as an SC and various herbicidal components alone and in combination. Forms of compound A were applied on an acid equivalent basis.
(§1) Other herbicidal components were applied on an active ingredient basis and included auxin transport inhibiting (ATI) herbicides chlorflurenol-methyl (technical material), chlorflurenol (technical material), diflufenzopyr (technical material), dilfufenzopyr sodium (technical material), flurenol-methyl (technical material,) and naptalam (technical material).
Treatment requirements for each compound or herbicidal component were calculated based upon the rates being tested, the concentration of active ingredient or acid equivalent in the formulation, an application volume of 2 mL per component per pot, and an application area of 86.59 cm^2 per pot.
For formulated compounds, a measured amount was placed in an individual 100 or 200 mL glass vial and was dissolved in a volume of 1.25% (v/v) Agri-Dex® crop oil concentrate to obtain application solutions.
For technical grade compounds, a weighed amount was placed in an individual 100 to 200 mL glass vial and was dissolved in a volume of acetone to obtain concentrated stock solutions. […] The concentrated stock solutions obtained were diluted with an equivalent volume of an aqueous mixture containing 2.5% (v/v) crop oil concentrate so that the final application solutions contained 1.25% (v/v) crop oil concentrate.
Applications were made by injecting with a pipetter appropriate amounts of the application solutions, individually and sequentially, into the aqueous layer of the paddy. Control plants were treated in the same manner with the solvent blank. Applications were made so that all treated plant material received the same concentrations of acetone and crop oil concentrate.
The treated plants and control plants were placed in a greenhouse as described above and water was added as needed to maintain a paddy flood. […]

ECHCG = experiment: Postemergence foliar-applied greenhouse weed control, ECHCG; assay type: in vivo, Echinochloa crusgalli (L.) Beauv.; conditions: 20 DAA
From the text: Seeds or nutlets of the desired test plant species were planted in a soil matrix prepared by mixing a loam or sandy loam soil (e.g., 28.6 percent silt, 18.8 percent clay, and 52.6 percent sand, with a pH of about 5.8 and an organic matter content of about 1.8 percent) and calcareous grit in an 80 to 20 ratio. The soil matrix was contained in plastic pots with a volume of 1 quart and a surface area of 83.6 square centimeters (cm^2). When required to ensure good germination and healthy plants, a fungicide treatment and/or other chemical or physical treatment was applied. The plants were grown for 8-22 days in a greenhouse with an approximate 14 h photoperiod which was maintained at about 29° C. during the day and 26° C. during the night. Nutrients (Peters Excel® 15-5-15 5-Ca 2-Mg and iron chelate) were applied in the irrigation solution as needed and water was added on a regular basis. Supplemental lighting was provided with overhead metal halide 1000-Watt lamps as necessary. The plants were employed for testing when they reached the first through fourth true leaf stage.
Treatments consisted of the acid or esters of 4-amino-3-chloro-5-fluoro-6-(4-chloro-2-fluoro-3-methoxy-phenyl) pyridine-2-carboxylic acid (Compound A), each formulated as an SC (suspension concentrate), and various herbicidal components alone and in combination. Forms of compound A were applied on an acid equivalent basis.
as §1, with “chlorflurenol” for “chlorflurenol-methyl”, “chlorflurenol-methyl” for “chlorflurenol”, “diflufenzopyr” for “dilfufenzopyr”, “material)” for “material,)”
Treatment requirements were calculated based upon the rates being tested, the concentration of active ingredient or acid equivalent in the formulation, and a 12 mL application volume at a rate of 187 L/ha.
For treatments comprised of formulated and technical compounds, weighed amounts of the technical materials were placed individually in 25 mL glass vials and dissolved in a volume of 97:3 v/v acetone/DMSO to obtain 12× stock solutions, and measured amounts of the formulated compounds were placed individually in 25 mL glass vials and diluted in a volume of 1.5% (v/v) crop oil concentrate or water to obtain 12× stock solutions. […] Application solutions were prepared by adding an appropriate amount of each stock solution (e.g., 1 mL) and diluted to the appropriate final concentrations with the addition of an appropriate amount of an aqueous mixture of 1.5% (v/v) crop oil concentrate so that the final spray solutions contained 1.25% (v/v) crop oil concentrate. When required, additional water and/or 97:3 v/v acetone/DMSO was added to individual application solutions so that the final acetone and DMSO concentrations of the application solutions being compared were 8.1% and 0.25%, respectively.
All stock solutions and applications solutions were visually inspected for compound compatibility prior to application. Spray solutions were applied to the plant material with an overhead Mandel track sprayer equipped with an 8002E nozzle calibrated to deliver 187 L/ha over an application area of 0.503 m^2 at a spray height of 18 to 20 inches (46 to 50 cm) above average plant canopy height. Control plants were sprayed in the same manner with the solvent blank.
The treated plants and control plants were placed in a greenhouse as described above and watered by sub-irrigation to prevent wash-off of the test compounds. After approximately 3 weeks, the condition of the test plants as compared with that of the untreated plants was determined visually and scored on a scale of 0 to 100 percent where 0 corresponds to no injury or growth inhibition and 100 corresponds to complete kill. […]

With `COc1c(Cl)ccc(-c2nc(C(=O)OCc3ccccc3)c(Cl)c(N)c2F)c1F` [Compound A Benzyl Ester] the “Visual Weed Control (%) Obs” value (SCPMA; 20 DAA, 4.38 gae/ha) was 0%, the “Visual Weed Control (%) Obs” value (SCPMA; 20 DAA, 8.75 gae/ha) was 0% and the “Visual Weed Control (%) Obs” value (SCPMA; 20 DAA, 17.5 gae/ha) was 0%. For the same compound, the “Visual Weed Control (%) Obs” value (SCPMA; 22 DAA, 8.75 gae/ha) was 0%, the “Visual Weed Control (%) Obs” value (SCPMA; 22 DAA, 17.5 gae/ha) was 0% and the “Visual Weed Control (%) Obs” value (ECHCG; 4.38 gae/ha) was 60%.
`COc1c(Cl)ccc(-c2nc(C(=O)O)c(Cl)c(N)c2F)c1F` [Compound A Acid, 4-amino-3-chloro-6-(4-chloro-2-fluoro-3-methoxyphenyl)-5-fluoropyridine-2-carboxylic acid] was tested, and the “Visual Weed Control (%) Obs” value (SCPMA; 20 DAA, 8.75 gae/ha) was 0%, the “Visual Weed Control (%) Obs” value (SCPMA; 20 DAA, 17.5 gae/ha) was 0% and the “Visual Weed Control (%) Obs” value (SCPMA; 20 DAA, 35 gae/ha) was 30%. For the same compound, the “Visual Weed Control (%) Obs” value (SCPMA; 22 DAA, 8.75 gae/ha) was 0%, the “Visual Weed Control (%) Obs” value (SCPMA; 22 DAA, 17.5 gae/ha) was 0% and the “Visual Weed Control (%) Obs” value (SCPMA; 22 DAA, 35 gae/ha) was 0%. The “Visual Weed Control (%) Obs” value (ECHCG; 4.38 gae/ha) was 60% and the “Visual Weed Control (%) Obs” value (ECHCG; 8.75 gae/ha) was 80%.

— patent US20140031217A1, “HERBICIDAL COMPOSITIONS COMPRISING 4-AMINO-3-CHLORO-5-FLUORO-6-(4-CHLORO-2-FLUORO-3-METHOXYPHENYL)PYRIDINE-2-CARBOXYLIC ACID OR A DERIVATIVE THEREOF AND AUXIN TRANSPORT INHIBITORS” (DOW AGROSCIENCES LLC, priority 2012, published 2014)
